Structures can show the parent of a compound that is named as a salt.
Target: Recombinant Btk (Homo sapiens (Human), UniProt Q06187)
Assay: BTK kinase assay (TR-FRET)
Conditions: IC50 (nM) Btk, 1 hour pre-incubation, ATP at Km

Chain of Recombinant Btk (Q06187 whole entry): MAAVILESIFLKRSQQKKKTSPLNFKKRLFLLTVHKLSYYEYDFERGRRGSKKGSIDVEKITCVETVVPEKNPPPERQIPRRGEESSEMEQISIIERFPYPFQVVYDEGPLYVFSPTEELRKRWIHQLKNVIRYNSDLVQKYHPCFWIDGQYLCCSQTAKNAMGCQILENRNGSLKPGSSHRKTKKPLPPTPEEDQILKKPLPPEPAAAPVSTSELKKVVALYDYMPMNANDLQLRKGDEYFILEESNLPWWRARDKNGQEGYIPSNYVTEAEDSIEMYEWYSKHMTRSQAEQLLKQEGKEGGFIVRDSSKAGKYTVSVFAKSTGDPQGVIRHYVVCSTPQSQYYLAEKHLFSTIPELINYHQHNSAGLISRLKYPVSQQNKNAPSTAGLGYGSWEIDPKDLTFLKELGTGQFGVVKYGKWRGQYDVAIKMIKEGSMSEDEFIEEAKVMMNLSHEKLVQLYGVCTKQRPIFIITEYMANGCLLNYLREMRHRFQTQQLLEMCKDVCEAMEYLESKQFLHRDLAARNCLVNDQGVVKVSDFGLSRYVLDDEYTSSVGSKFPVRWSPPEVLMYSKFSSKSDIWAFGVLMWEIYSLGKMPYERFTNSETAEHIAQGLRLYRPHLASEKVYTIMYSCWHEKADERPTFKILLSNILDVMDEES

In the case of `C=CC(=O)Nc1ccccc1C1CCNc2c(C(N)=O)c(-c3ccc(OCc4ccccc4)cc3)nn21` (single isomer, unassigned) [Compound 10b], the IC50 is reported as 42 nM.

Same assay, conditions: read-out: IC50 (nM) Btk; 1 hour pre-incubation, ATP at Km

Compared with `NC(=O)c1c(-c2ccc(Oc3ccccc3)cc2)nn2c1NC[C@H]1CNC[C@H]12` (relative stereo) [Compound 115], `NC(=O)c1c(-c2ccc(Oc3ccccc3)cc2)nn2c1NCCC2C1CCNCC1` (stereo not drawn) [Compound 26, 7-(Piperidin-4-yl)-2-(4-phenoxyphenyl)-4,5,6,7-tetrahydropyrazolo [1,5-a]pyrimidine-3-carboxamide trifluoroacetate] is 4.8-fold lower in IC50: 8200 nM for the first, 1700 nM for the second. The second is the more potent here.

Compared with `C=CC(=O)N1CCC2[C@H](CNc3c(C(N)=O)c(-c4ccc(Oc5ccccc5)cc4)nn32)C1` (single isomer, unassigned) [Compound 30b], `CC(C)(C)OC(=O)N1CC2[C@@H](CNc3c(C(N)=O)c(-c4ccc(Oc5ccccc5)cc4)nn32)C1` (single isomer, unassigned) [Compound 114, Cis-7-(1-tert-Butoxycarbonyl)-2-(4-phenoxyphenyl)-5,5a,6,7,8,8a-hexahydro-4H-pyrazolo[1,5-a]pyrrolo[3,4-e]pyrimidine-3-carboxamide] is 380-fold higher in IC50: 16 nM for the first, 6000 nM for the second. The first is the more potent here.

`N#Cc1c(-c2ccc(Oc3ccccc3)cc2)nn2c(-c3cccc(N)c3)ccnc12` [Compound 1, 7-(3-Aminophenyl)-2-(4-phenoxyphenyl)pyrazolo[1,5-a]pyrimidine-3-carbonitrile] and `NC(=O)c1c(-c2ccc(Oc3ccccc3)cc2)nn2c(-c3cccc(N)c3)ccnc12` [Compound 7, 7-(3-Aminophenyl)-2-(4-phenoxyphenyl)pyrazolo[1,5-a]pyrimidine-3-carboxamide] cannot be ordered by IC50: greater than 10000 nM for the first, greater than 10000 nM for the second.

Compared with `NC(=O)c1c(-c2ccc(Oc3ccccc3)cc2)nn2c1NCCC2c1cccc(N)c1` (stereo not drawn) [Compound 2, 7-(3-Aminophenyl)-2-(4-phenoxyphenyl)-4,5,6,7-tetrahydropyrazolo [1,5-a]pyrimidine-3-carboxamide], `NC(=O)c1c(-c2ccc(Oc3ccc(F)cc3)cc2)nn2c1NCCC2c1ccccc1N` (stereo not drawn) [Compound 11, 7-(2-Aminophenyl)-2-(4-(4-fluorophenoxy)phenyl)-4,5,6,7-tetrahydro pyrazolo[1,5-a]pyrimidine-3-carboxamide] is 12-fold higher in IC50: 360 nM for the first, 4500 nM for the second.

`NC(=O)c1c(-c2ccc(OCc3ccccc3)cc2)nn2c1NCCC2c1ccccc1N` (stereo not drawn) [Compound 9, 7-(2-Aminophenyl)-2-(4-(benzyloxy)phenyl)-4,5,6,7-tetrahydro pyrazolo[1,5-a]pyrimidine-3-carboxamide] and `NC(=O)c1c(-c2ccc(OCC3CC3)cc2)nn2c1NCCC2c1ccccc1N` (stereo not drawn) [Compound 19, 7-(2-Aminophenyl)-2-(4-(cyclopropylmethoxy)phenyl)-4,5,6,7-tetrahydropyrazolo[1,5-a]pyrimidine-3-carboxamide] are within 1.5-fold of each other in IC50: 3700 nM for the first, 5300 nM for the second.

First: C=CC(=O)Nc1ccccc1C1CCNc2c(C(N)=O)c(-c3ccc(Oc4ccc(F)cc4)cc3)nn21 (stereo not drawn) [Compound 12, 7-(2-Acrylamidophenyl)-2-(4-(4-fluorophenoxy)phenyl)-4,5,6,7-tetrahydropyrazolo[1,5-a]pyrimidine-3-carboxamide]
Second: CNc1ccccc1C1CCNc2c(C(N)=O)c(-c3ccc(Oc4ccc(F)cc4)cc3)nn21 (stereo not drawn) [Compound 15, 2-(4-(4-Fluorophenoxy)phenyl)-7-(2-(methylamino)phenyl)-4,5,6,7-tetrahydropyrazolo[1,5-a]pyrimidine-3-carboxamide]
The IC50 of the first is 1600-fold lower: 1.7 nM for the first, 2700 nM for the second.

Compared with `C=CC(=O)N(C)c1ccccc1C1CCNc2c(C(N)=O)c(-c3ccc(Oc4ccc(F)cc4)cc3)nn21` (stereo not drawn) [Compound 16, 2-(4-(4-Fluorophenoxy)phenyl)-7-(2-(N-methylacrylamido)phenyl)-4,5,6,7-tetrahydropyrazolo[1,5-a]pyrimidine-3-carboxamide], `C=CC(=O)N(C)CC1CCNc2c(C(N)=O)c(-c3ccc(Oc4ccccc4)cc3)nn21` (stereo not drawn) [Compound 35] is 17-fold lower in IC50: 19 nM for the first, 1.1 nM for the second.

Going from `NC(=O)c1c(-c2ccc(OC3CCCC3)cc2)nn2c1NCCC2c1ccccc1N` (stereo not drawn) [Compound 17, 7-(2-Aminophenyl)-2-(4-(cyclopentyloxy)phenyl)-4,5,6,7-tetrahydro pyrazolo[1,5-a]pyrimidine-3-carboxamide] to `NC(=O)c1c(-c2ccc(OC3CCOCC3)cc2)nn2c1NCCC2c1ccccc1N` (stereo not drawn) [Compound 23, 7-(2-Aminophenyl)-2-(4-(tetrahydro-2H-pyran-4-yloxy)phenyl)-4,5,6,7-tetrahydropyrazolo[1,5-a]pyrimidine-3-carboxamide], the IC50 falls from greater than 10000 nM to 3200 nM.

Going from `COCCOc1ccc(-c2nn3c(c2C(N)=O)NCCC3c2ccccc2N)cc1` (stereo not drawn) [Compound 21, 7-(2-Aminophenyl)-2-(4-(2-methoxyethoxy)phenyl)-4,5,6,7-tetrahydropyrazolo[1,5-a]pyrimidine-3-carboxamide] to `NCC1CCNc2c(C(N)=O)c(-c3ccc(Oc4ccccc4)cc3)nn21` (stereo not drawn) [Compound 32, 7-(Aminomethyl)-2-(4-phenoxyphenyl)-4,5,6,7-tetrahydropyrazolo [1,5-a]pyrimidine-3-carboxamide], the IC50 falls from greater than 10000 nM to 1700 nM.

Compared with `C=CC(=O)Nc1ccccc1C1CCNc2c(C(N)=O)c(-c3ccc(OC4CCOCC4)cc3)nn21` (stereo not drawn) [Compound 24, 7-(2-Acrylamidophenyl)-2-(4-(tetrahydro-2H-pyran-4-yloxy)phenyl)-4,5,6,7-tetrahydropyrazolo[1,5-a]pyrimidine-3-carboxamide], `CC(C)(C)OC(=O)N1CCC(C2CCNc3c(C(N)=O)c(-c4ccc(Oc5ccccc5)cc4)nn32)CC1` (stereo not drawn) [Compound 25, 7-(1-(Tert-butoxycarbonyl)piperidin-4-yl)-2-(4-phenoxyphenyl)-4,5,6,7-tetrahydropyrazolo[1,5-a]pyrimidine-3-carboxamide] is 79-fold higher in IC50: 39 nM for the first, 3100 nM for the second.

Compared with `CNCC1CCNc2c(C(N)=O)c(-c3ccc(Oc4ccccc4)cc3)nn21` (stereo not drawn) [Compound 34, 7-((Methylamino)methyl)-2-(4-phenoxyphenyl)-4,5,6,7-tetrahydro pyrazolo[1,5-a]pyrimidine-3-carboxamide], `NC(=O)c1c(-c2ccc(Oc3ccccc3)cc2)nn2c1NCC21CNC1` [Compound 45, 6′-(4-Phenoxyphenyl)-1′,2′-dihydrospiro[azetidine-3,3′-imidazo[1,2-b]pyrazole]-7′-carboxamide] is 3.7-fold lower in IC50: 1900 nM for the first, 510 nM for the second. The second is the more potent here.

Compared with `NCC1CCNc2c(C(N)=O)c(-c3cnn(Cc4ccccc4)c3)nn21` (stereo not drawn) [Compound 36, 7-(Aminomethyl)-2-(1-benzyl-1H-pyrazol-4-yl)-4,5,6,7-tetrahydro pyrazolo[1,5-a]pyrimidine-3-carboxamide trifluoroacetate], `C=CC(=O)NCC1CCNc2c(C(N)=O)c(-c3cnn(Cc4ccccc4)c3)nn21` (stereo not drawn) [Compound 37, 7-(Acrylamidomethyl)-2-(1-benzyl-1H-pyrazol-4-yl)-4,5,6,7-tetrahydropyrazolo[1,5-a]pyrimidine-3-carboxamide] is lower in IC50: greater than 10000 nM for the first, 640 nM for the second.

Going from `NC(=O)c1c(-c2ccc(Oc3ccccc3)cc2)nn2c1NCC21CCN(Cc2ccccc2)CC1` [Compound 38, 1′-Benzyl-6-(4-phenoxyphenyl)-1,2-dihydrospiro[imidazo[1,2-b]pyrazole-3,4′-piperidine]-7-carboxamide] to `NC(=O)c1c(-c2ccc(Oc3ccccc3)cc2)nn2c1NCCC21CCN(Cc2ccccc2)CC1` [Compound 41, 1-Benzyl-2′-(4-phenoxyphenyl)-5′,6′-dihydro-4′H-spiro[piperidine-4,7′-pyrazolo[1,5-a]pyrimidine]-3′-carboxamide], the IC50 falls from 490 nM to 180 nM (2.7-fold). The second is the more potent here.

Compared with `NC(=O)c1c(-c2ccc(Oc3ccccc3)cc2)nn2c1NCC21CCNCC1` [Compound 39, 6-(4-Phenoxyphenyl)-1,2-dihydrospiro[imidazo[1,2-b]pyrazole-3,4′-piperidine]-7-carboxamide], `NC(=O)c1c(-c2ccc(Oc3ccccc3)cc2)nn2c1NCCC21CCNCC1` [Compound 42, 2′-(4-Phenoxyphenyl)-5′,6′-dihydro-4′H-spiro[piperidine-4,7′-pyrazolo [1,5-a]pyrimidine]-3′-carboxamide trifluoroacetate] is 4.2-fold lower in IC50: 1400 nM for the first, 330 nM for the second.

First: C=CC(=O)N1CCC2(CCNc3c(C(N)=O)c(-c4ccc(Oc5ccccc5)cc4)nn32)CC1 [Compound 43, 1-Acryloyl-2′-(4-phenoxyphenyl)-5′,6′-dihydro-4′H-spiro[piperidine-4,7′-pyrazolo[1,5-a]pyrimidine]-3′-carboxamide]
Second: C=CC(=O)N1CC2(CNc3c(C(N)=O)c(-c4ccc(Oc5ccccc5)cc4)nn32)C1 [Compound 46, 1-Acryloyl-6′-(4-phenoxyphenyl)-1′,2′-dihydrospiro[azetidine-3,3′-imidazo[1,2-b]pyrazole]-7′-carboxamide]
The IC50 of the first is 1.7-fold lower: 3 nM for the first, 5 nM for the second.

First: NC(=O)c1c(-c2ccc(Oc3ccccc3)cc2)nn2c1NCC21CN(Cc2ccccc2)C1 [Compound 44, 1-Benzyl-6′-(4-phenoxyphenyl)-1′,2′-dihydrospiro[azetidine-3,3′-imidazo[1,2-b]pyrazole]-7′-carboxamide]
Second: NC(=O)c1c(-c2ccc(Oc3ccccc3)cc2)nn2c(-c3cccc(N)c3)c[nH]c12 [Compound 49, 3-(3-Aminophenyl)-6-(4-phenoxyphenyl)-1H-pyrazolo[1,5-a]imidazole-7-carboxamide]
The IC50 of the first is 7.6-fold higher: 220 nM for the first, 29 nM for the second. The second is the more potent here.

Compared with `NC(=O)c1c(-c2ccc(Oc3ccccc3)cc2)nn2cc(-c3cccc(N)c3)[nH]c12` [Compound 47, 2-(3-Aminophenyl)-6-(4-phenoxyphenyl)-1H-imidazo[1,2-b]pyrazole-7-carboxamide], `NC(=O)c1c(-c2ccc(Oc3ccccc3)cc2)nn2c3c([nH]c12)CCNC3` [Compound 51, 2-(4-Phenoxyphenyl)-5,6,7,8-tetrahydro-4H-pyrazolo[5′,1′:2,3]imidazo[4,5-c]pyridine-3-carboxamide trifluoroacetate] is 2.8-fold higher in IC50: 110 nM for the first, 310 nM for the second. The first is the more potent here.

With `NC(=O)c1c(-c2ccc(Oc3ccccc3)cc2)nn2c3c([nH]c12)CCN(C(=O)CCCl)C3` [Compound 53, 7-(3-Chloropropanoyl)-2-(4-phenoxyphenyl)-5,6,7,8-tetrahydro-4H-pyrazolo[5′,1′:2,3]imidazo[4,5-c]pyridine-3-carboxamide] the IC50 was 7.7 nM.

From patent US20250340560A1, “SUBSTITUTED PYRAZOLO[1,5-a]PYRIMIDINES AS BRUTON'S TYROSINE KINASE MODULATORS” (BEIGENE SWITZERLAND GMBH, priority 2013, published 2025)
